Laboratory results from US20060264388A1, “Method for treating liver cancer by intrahepatic administration of nemorubicin” (priority 2003, published 2006).

Columns and labels:
[1] = test system: patients with liver cancer; test: Hematological toxicity - Platelets, worst CTC Grade by cycle, intrahepatic artery nemorubicin q8wk vs q6wk; format: in vivo, human
Description: (§1) The objective of the study was to shorten the time interval between treatment administrations from every 8 weeks (q8wk) of the protocol as reported in WO 00/15203 to every 6 weeks (q6wk). This was done in the attempt of improving the therapeutic potential of nemorubicin treatment through an increase of the dose intensity of the therapy, simultaneously safeguarding patient safety.
(§2) Overall, 13 patients were treated with the q8wk schedule (total 25 cycles administered; doses ranged from 200 to 800 mcg/m^2), and 11 patients were treated with the q6wk schedule (total 32 cycles administered; doses were 200 and 600 mcg/m^2).
(§3) The NCI-Common Tosicity Criteria grading system (CTC Grade), Version 2.0, was used to report toxicities.
(§4) A slight cumulative effect (i.e., increase in frequency but not in severity) was observed after repeated cycles for leucopenia and neutropenia (Tables 2 and 3), mainly with the q8wk schedule.

tumor cells = settings: mouse, rat and human liver microsomes; cited from earlier work
[2] = test system: tumor cells resistant to anthracyclines and presenting the mdr phenotype; settings: cited from earlier work
[3] = test system: liver metastases in colorectal and renal cancer patients; settings: i.v., cited from earlier work
[4] = test system: murine leukemias, solid murine and human tumor models; settings: cited from earlier work
[5] = test system: patients with liver cancer; test: Hematological toxicity - Neutrophils, worst CTC Grade by cycle, intrahepatic artery nemorubicin q8wk vs q6wk; format: in vivo, human
Description: as §1, §2, §3, §4

[6] = 400 mcg/m^2 q8wk, All cycles, 4 evaluable cycles
[7] = 400 mcg/m^2 q8wk, Cycle 1, 3 evaluable cycles
[8] = 600 mcg/m^2 q6wk, All cycles, 18 evaluable cycles
[9] = 600 mcg/m^2 q6wk, Cycle 1, 6 evaluable cycles
[10] = 600 mcg/m^2 q6wk, Cycles > 1, 12 evaluable cycles
[11] = 600 mcg/m^2 q8wk, All cycles, 8 evaluable cycles
[12] = 600 mcg/m^2 q8wk, Cycle 1, 4 evaluable cycles
[13] = 600 mcg/m^2 q8wk, Cycles > 1, 4 evaluable cycles
[14] = 800 mcg/m^2 q8wk, All cycles, 3 evaluable cycles
[15] = 800 mcg/m^2 q8wk, Cycle 1, 3 evaluable cycles
[16] = 200 mcg/m^2 q6wk, All cycles, 11 evaluable cycles
[17] = 200 mcg/m^2 q6wk, Cycle 1, 5 evaluable cycles
[18] = 200 mcg/m^2 q6wk, Cycles > 1, 6 evaluable cycles
[19] = 200 mcg/m^2 q8wk, All cycles, 5 evaluable cycles
[20] = 200 mcg/m^2 q8wk, Cycle 1, 3 evaluable cycles
[21] = 200 mcg/m^2 q8wk, Cycles > 1, 2 evaluable cycles
[22] = 800 mcg/m^2 q8wk, All cycles, 4 evaluable cycles

COc1cccc2c1C(=O)c1c(O)c3c(c(O)c1C2=O)C[C@@](O)(C(=O)CO)C[C@@H]3O[C@H]1C[C@H](N2CCO[C@H](OC)C2)[C@H](O)[C@H](C)O1.Cl [nemorubicin, 3′desamino-3′[2(S)methoxy-4-morpholinyl]doxorubicin-hydrochloride]
Platelets, worst CTC Grade by cycle: Grade 1-2 (%) [1, 6]: 1 (25%) (%) | Platelets, worst CTC Grade by cycle: All Grades (%) [1, 7]: 1 (33%) (%) | Platelets, worst CTC Grade by cycle: Grade 1-2 (%) [1, 7]: 1 (33%) (%) | Platelets, worst CTC Grade by cycle: All Grades (%) [1, 8]: 17 (94%) (%) | Platelets, worst CTC Grade by cycle: Grade 1-2 (%) [1, 8]: 17 (94%) (%) | Platelets, worst CTC Grade by cycle: All Grades (%) [1, 9]: 6 (100%) (%) | Platelets, worst CTC Grade by cycle: Grade 1-2 (%) [1, 9]: 6 (100%) (%) | Platelets, worst CTC Grade by cycle: All Grades (%) [1, 10]: 11 (92%) (%) | Platelets, worst CTC Grade by cycle: Grade 1-2 (%) [1, 10]: 11 (92%) (%) | Platelets, worst CTC Grade by cycle: All Grades (%) [1, 11]: 8 (100%) (%) | Platelets, worst CTC Grade by cycle: Grade 1-2 (%) [1, 11]: 7 (87%) (%) | Platelets, worst CTC Grade by cycle: Grade 3 (%) [1, 11]: 1 (12%) (%) | Platelets, worst CTC Grade by cycle: All Grades (%) [1, 12]: 4 (100%) (%) | Platelets, worst CTC Grade by cycle: Grade 1-2 (%) [1, 12]: 4 (100%) (%) | Platelets, worst CTC Grade by cycle: All Grades (%) [1, 13]: 4 (100%) (%) | Platelets, worst CTC Grade by cycle: Grade 1-2 (%) [1, 13]: 3 (75%) (%) | Platelets, worst CTC Grade by cycle: Grade 3 (%) [1, 13]: 1 (25%) (%) | Platelets, worst CTC Grade by cycle: All Grades (%) [1, 14]: 2 (67%) (%) | Platelets, worst CTC Grade by cycle: Grade 1-2 (%) [1, 14]: 2 (67%) (%) | Platelets, worst CTC Grade by cycle: All Grades (%) [1, 15]: 2 (67%) (%) | Platelets, worst CTC Grade by cycle: Grade 1-2 (%) [1, 15]: 2 (67%) (%) | thrombocytopenia, maximum severity (CTC Grade) ([1]; only one patient treated at 600 mcg/m^2 q8wk after repeated cycles): Grade 3 | cytotoxic activity in vitro in the presence of liver microsomes (tumor cells): increased | activity in vitro and in vivo [2]: active | principle toxicities [3]: nausea and vomiting (requiring intravenous antiemetic treatment), myelosuppression and transient elevations in transaminases | antitumor effect observed ([3]; tumor shrinkage at doses of 1250 and 1500 mcg/m^2, 197 patients): regressions of liver metastases were repeatedly observed | antitumor activity ([4]; after i.p., i.v. or oral administration, murine leukemias, solid murine and human tumor models): good antitumor activity | effective oral doses, fold higher than the effective i.v. doses ([4]; animal tumor models, oral vs i.v.): 1.3-2 fold | optimal i.v. dose, fold less than that of doxorubicin ([4]; in vivo, i.v.): at least 80 fold | Neutrophils, worst CTC Grade by cycle: All Grades (%) [5, 16]: 4 (36%) (%) | Neutrophils, worst CTC Grade by cycle: Grade 1-2 (%) [5, 16]: 4 (36%) (%) | Neutrophils, worst CTC Grade by cycle: All Grades (%) [5, 17]: 2 (40%) (%) | Neutrophils, worst CTC Grade by cycle: Grade 1-2 (%) [5, 17]: 2 (40%) (%) | Neutrophils, worst CTC Grade by cycle: All Grades (%) [5, 18]: 2 (33%) (%) | Neutrophils, worst CTC Grade by cycle: Grade 1-2 (%) [5, 18]: 2 (33%) (%) | Neutrophils, worst CTC Grade by cycle: All Grades (%) [5, 19]: 3 (60%) (%) | Neutrophils, worst CTC Grade by cycle: Grade 1-2 (%) [5, 19]: 3 (60%) (%) | Neutrophils, worst CTC Grade by cycle: All Grades (%) [5, 20]: 1 (33%) (%) | Neutrophils, worst CTC Grade by cycle: Grade 1-2 (%) [5, 20]: 1 (33%) (%) | Neutrophils, worst CTC Grade by cycle: All Grades (%) [5, 21]: 2 (100%) (%) | Neutrophils, worst CTC Grade by cycle: Grade 1-2 (%) [5, 21]: 2 (100%) (%) | Neutrophils, worst CTC Grade by cycle: All Grades (%) [5, 6]: 1 (25%) (%) | Neutrophils, worst CTC Grade by cycle: Grade 1-2 (%) [5, 6]: 1 (25%) (%) | Neutrophils, worst CTC Grade by cycle: All Grades (%) [5, 7]: 1 (33%) (%) | Neutrophils, worst CTC Grade by cycle: Grade 1-2 (%) [5, 7]: 1 (33%) (%) | Neutrophils, worst CTC Grade by cycle: All Grades (%) [5, 8]: 3 (17%) (%) | Neutrophils, worst CTC Grade by cycle: Grade 1-2 (%) [5, 8]: 3 (17%) (%) | Neutrophils, worst CTC Grade by cycle: All Grades (%) [5, 9]: 1 (17%) (%) | Neutrophils, worst CTC Grade by cycle: Grade 1-2 (%) [5, 9]: 1 (17%) (%) | Neutrophils, worst CTC Grade by cycle: All Grades (%) [5, 10]: 2 (17%) (%) | Neutrophils, worst CTC Grade by cycle: Grade 1-2 (%) [5, 10]: 2 (17%) (%) | Neutrophils, worst CTC Grade by cycle: All Grades (%) [5, 11]: 2 (25%) (%) | Neutrophils, worst CTC Grade by cycle: Grade 1-2 (%) [5, 11]: 2 (25%) (%) | Neutrophils, worst CTC Grade by cycle: All Grades (%) [5, 13]: 2 (50%) (%) | Neutrophils, worst CTC Grade by cycle: Grade 1-2 (%) [5, 13]: 2 (50%) (%) | Neutrophils, worst CTC Grade by cycle: All Grades (%) [5, 22]: 1 (25%) (%) | Neutrophils, worst CTC Grade by cycle: Grade 1-2 (%) [5, 22]: 1 (25%) (%) | Neutrophils, worst CTC Grade by cycle: All Grades (%) [5, 15]: 1 (33%) (%) | Neutrophils, worst CTC Grade by cycle: Grade 1-2 (%) [5, 15]: 1 (33%) (%)
